# Measured values from the supplement of paper PMC5844555.
# What was measured:
# Assay in all cases: 3' UTR reporter interaction score (median-centred robust z-score of log2 firefly/Renilla activity); higher = less repression of the 3' UTR reporter
# Conditions in all cases: HEK293T; 48 h
# BRCA2 = system: BRCA2
# Method in brief: (§1)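 HEK293T cells (10,000/well, 96-well plates) were co-transfected using DharmaFECT Duo with 100 ng firefly luc2P reporter carrying the gene's 3' UTR, 20 ng Renilla pRL-TK control and 2.5 pmol miRNA mimic. Dual-luciferase activities were read 48 h post-transfection. The interaction score is the log-transformed firefly/Renilla ratio as a per-plate robust z-score (median, median absolute deviation), median-centred per miRNA and averaged over at least two independent screens; more negative indicates interaction.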
# NOTCH1 = system: NOTCH1
# Method in brief: as §1
# MYB = system: MYB
# Method in brief: as §1
# MYCN = system: MYCN
# Method in brief: as §1
# PHOX2B = system: PHOX2B
# Method in brief: as §1
# FBXW7 = system: FBXW7
# Method in brief: as §1
# EZH2 = system: EZH2
# Method in brief: as §1
# MYC = system: MYC
# Method in brief: as §1
# ZEB2 = system: ZEB2
# Method in brief: as §1
# HRAS = system: HRAS
# Method in brief: as §1
# PHF6 = system: PHF6
# Method in brief: as §1
# RB1 = system: RB1
# Method in brief: as §1
# MYT1L = system: MYT1L
# Method in brief: as §1
# TP53 = system: TP53
# Method in brief: as §1
Sequence,3' UTR reporter interaction score (BRCA2),3' UTR reporter interaction score (NOTCH1),3' UTR reporter interaction score (MYB),3' UTR reporter interaction score (MYCN),3' UTR reporter interaction score (PHOX2B),3' UTR reporter interaction score (FBXW7),3' UTR reporter interaction score (EZH2),3' UTR reporter interaction score (MYC),3' UTR reporter interaction score (ZEB2),3' UTR reporter interaction score (HRAS),3' UTR reporter interaction score (PHF6),3' UTR reporter interaction score (RB1),3' UTR reporter interaction score (MYT1L),3' UTR reporter interaction score (TP53)
UAUUGCACUUGUCCCGGCCUG,1.75,-0.177,-1.54,1.23,0.517,-2.99,-0.214,0.754,-2.03,0.114,0.0608,1.41,-1.81,0.235
UAUUGCUUAAGAAUACGCGUAG,0.543,-0.139,-0.789,0.474,-0.259,-1.25,0.837,-0.116,0.0907,0.147,-1.32,0.636,0.685,-0.087
UCAAAUGCUCAGACUCCUGU,-3.48,-0.149,-3.31,1.14,0.0556,0.918,0.251,-0.559,-1,0.546,0.837,1.29,-0.983,-0.221
UCAAGAGCAAUAACGAAAAAUGU,0.701,0.351,-0.127,-0.782,-0.662,0.698,-0.0128,-0.189,0.703,-0.0915,0.162,-2.16,-2.38,0.338
UCACAAUGCUGACACUCAAACUGCUGAC,-3.53,-0.0831,-0.419,-0.126,0.242,0.257,0.195,0.447,-1.11,-0.335,0.399,-0.143,0.647,-0.424
UCACAGUGAACCGGUCUCUUUC,0.111,-0.749,-1.23,0.302,0.244,-1.67,0.78,0.45,-2.39,-0.688,-3.58,-0.537,0.655,0.241
UCACAGUGAACCGGUCUCUUUU,-0.31,-0.144,0.662,1.36,-1.31,-1.07,0.47,-0.0365,-4.74,-2.6,1.79,1.15,-2.56,0.412
UCAGAACAAAUGCCGGUUCCCAGA,-0.146,-0.509,0.483,0.0784,-0.368,0.465,0.61,0.178,0.0144,1.03,0.882,-0.316,-0.318,-1.5
UCAGGCUCAGUCCCCUCCCGAU,0.841,-0.181,-1.88,-0.567,0.106,0.573,0.0569,0.0353,1.33,-0.122,0.0613,0.0824,-0.304,0.0121
UCAGUCUCAUCUGCAAAGAAG,-0.924,-1.13,-0.485,1.11,0.237,0.372,1.71,0.794,-0.368,1.08,-0.895,0.581,-1.02,-0.202
UCAGUGCACUACAGAACUUUGU,-1.23,0.169,-1.33,0.963,-0.0276,0.473,-0.364,0.0974,1.75,-0.763,0.792,1.18,1.34,-0.523
UCAGUGCAUCACAGAACUUUGU,-1.11,0.0134,-1.04,0.974,-0.909,0.15,-0.211,0.216,1.9,-0.998,0.428,1.28,1.61,-0.15
UCAGUGCAUGACAGAACUUGGG,-0.0322,0.274,-1.5,0.0157,-1.31,0.501,0.0466,0.213,1.1,-1.05,1.76,-2.16,0.827,-0.341
UCCAGCAUCAGUGAUUUUGUUGA,0.64,-0.191,0.387,-0.105,1.43,-0.0681,0.0592,-0.461,0.915,-0.335,0.0153,-0.243,-0.429,-0.53
UCCAGCUCCUAUAUGAUGCCUUU,0.152,-1.09,0.963,-0.396,-0.208,0.91,0.255,0.624,-2.75,-0.216,-0.704,-0.767,-1.49,0.0762
UCCAGUACCACGUGUCAGGGCCA,0.581,0.223,0.593,-3.01,0.294,-1.35,-1.44,-0.893,0.742,0.159,-0.805,0.837,0.747,-0.171
UCCCACGUUGUGGCCCAGCAG,0.793,0.591,-0.00342,-0.504,-0.461,-0.0713,0.303,0.28,-0.736,-0.421,0.0798,-2.41,-0.668,0.863
